Patent US11382328B2, “Rapid drug discovery methods for pathogen inactivation” (priority 2019, dated 2022)

Test system: E. coli strain W3110
Assay: Synergy assays: Biolog chemical sensitivity panels with Group IB metal, coefficient of drug interaction (CDI) from relative growth
Format: cell-based
Conditions: for CDI (coefficient of drug interaction), copper mixed with biocide: Copper (mM) section; for CDI (coefficient of drug interaction), gold + biocide: Gold (μM)
[1] = 1st of 3 copper concentrations (value not shown), 4th of four biocide concentrations
[2] = 3rd of 3 copper concentrations (value not shown), 4th of four biocide concentrations
[3] = Silver 0.5 μM, 4th of four biocide concentrations, E. coli
[4] = Silver 1.0 μM, 4th of four biocide concentrations, E. coli
[5] = Silver 5.0 μM, 4th of four biocide concentrations, E. coli
[6] = […], biocide concentration 4 of 4, E. coli
[7] = 2nd of 3 copper concentrations (value not shown), 4th of four biocide concentrations
[8] = Copper (mM), 1st of 3 copper concentrations (head line not shown), biocide concentration 4 of 4, E. coli
[9] = Copper (mM), 2nd of 3 copper concentrations (head line not shown), biocide concentration 4 of 4, E. coli
[10] = Copper (mM), 3rd of 3 copper concentrations (head line not shown), biocide concentration 4 of 4, E. coli
[11] = Silver 0.5 μM, biocide concentration 4 of 4
[12] = Silver 1.0 μM, biocide concentration 4 of 4
[13] = Silver 5.0 μM, biocide concentration 4 of 4

O=c1cc(O)c2ccccc2o1 [4-Hydroxy-coumarin]
CDI (coefficient of drug interaction), copper mixed with biocide [1]: Tox | CDI (coefficient of drug interaction), copper mixed with biocide [2]: Tox | CDI (coefficient of drug interaction) (Gold 5 μM, biocide concentration 4 of 4, E. coli): Tox | CDI (coefficient of drug interaction) (Gold 25 μM, biocide concentration 4 of 4, E. coli): Tox | CDI (coefficient of drug interaction), silver + biocide [3]: Tox | CDI (coefficient of drug interaction), silver + biocide [4]: Tox | CDI (coefficient of drug interaction), silver + biocide [5]: Tox | CDI (coefficient of drug interaction) [6]: Tox

Cc1ccc2c(Cl)cc(Cl)c(O)c2n1 [5,7-dichloro-8-hydroxyquinaldine]
CDI (coefficient of drug interaction), silver + biocide [3]: Tox | CDI (coefficient of drug interaction), silver + biocide [4]: Tox | CDI (coefficient of drug interaction), silver + biocide [5]: Tox

NC(=O)NN=Cc1ccc([N+](=O)[O-])o1 [5-Nitro-2-furaldehyde semicarbazone]
CDI (coefficient of drug interaction) ([…], biocide concentration 3 of 4, E. coli): Tox | CDI (coefficient of drug interaction) [6]: Tox

Nc1c2ccccc2nc2ccccc12 [9-aminoacridine]
CDI (coefficient of drug interaction), copper mixed with biocide [7]: Tox | CDI (coefficient of drug interaction), silver + biocide [3]: Tox | CDI (coefficient of drug interaction), silver + biocide [4]: Tox | CDI (coefficient of drug interaction), silver + biocide [5]: Tox

N#CC(C#N)=NNc1cccc(Cl)c1 [CCCP, Carbonyl cyanide m-chlorophenylhydrazone]
CDI (coefficient of drug interaction) [8]: Tox | CDI (coefficient of drug interaction) [9]: Tox | CDI (coefficient of drug interaction) [10]: Tox | CDI [11]: Tox | CDI [12]: Tox | CDI [13]: Tox

O=C(O)/C=C/c1ccccc1 [Cimamic acid]
CDI (coefficient of drug interaction) (Copper (mM), 1st of 3 copper concentrations (head line not shown), biocide concentration 1 of 4, E. coli): 0.85 | CDI (coefficient of drug interaction) (Copper (mM), 1st of 3 copper concentrations (head line not shown), biocide concentration 2 of 4, E. coli): 0.74 | CDI (coefficient of drug interaction) (Copper (mM), 1st of 3 copper concentrations (head line not shown), biocide concentration 3 of 4, E. coli): 0.87 | CDI (coefficient of drug interaction) [8]: Tox | CDI (coefficient of drug interaction) (Copper (mM), 2nd of 3 copper concentrations (head line not shown), biocide concentration 1 of 4, E. coli): 0.70 | CDI (coefficient of drug interaction) (Copper (mM), 2nd of 3 copper concentrations (head line not shown), biocide concentration 2 of 4, E. coli): 0.79 | CDI (coefficient of drug interaction) (Copper (mM), 2nd of 3 copper concentrations (head line not shown), biocide concentration 3 of 4, E. coli): 1.11 | CDI (coefficient of drug interaction) [9]: Tox | CDI (coefficient of drug interaction) (Copper (mM), 3rd of 3 copper concentrations (head line not shown), biocide concentration 1 of 4, E. coli): 0.53 | CDI (coefficient of drug interaction) (Copper (mM), 3rd of 3 copper concentrations (head line not shown), biocide concentration 2 of 4, E. coli): 0.54 | CDI (coefficient of drug interaction) (Copper (mM), 3rd of 3 copper concentrations (head line not shown), biocide concentration 3 of 4, E. coli): 1.11 | CDI (coefficient of drug interaction) [10]: Tox | CDI (coefficient of drug interaction), gold + biocide (first of 3 gold concentrations, biocide concentration 2 of 4): 1.09 | CDI (coefficient of drug interaction), gold + biocide (first of 3 gold concentrations, biocide concentration 3 of 4): 1.19 | CDI (coefficient of drug interaction), gold + biocide (first of 3 gold concentrations, biocide concentration 4 of 4): Tox | CDI (coefficient of drug interaction), gold + biocide (second of 3 gold concentrations, biocide concentration 1 of 4): 0.99 | CDI (coefficient of drug interaction), gold + biocide (second of 3 gold concentrations, biocide concentration 2 of 4): 1.11 | CDI (coefficient of drug interaction), gold + biocide (second of 3 gold concentrations, biocide concentration 3 of 4): 0.95 | CDI (coefficient of drug interaction), gold + biocide (second of 3 gold concentrations, biocide concentration 4 of 4): Tox | CDI (coefficient of drug interaction), gold + biocide (third of 3 gold concentrations, biocide concentration 1 of 4): 0.98 | CDI (coefficient of drug interaction), gold + biocide (third of 3 gold concentrations, biocide concentration 2 of 4): 0.85 | CDI (coefficient of drug interaction), gold + biocide (third of 3 gold concentrations, biocide concentration 3 of 4): 0.96 | CDI (coefficient of drug interaction), gold + biocide (third of 3 gold concentrations, biocide concentration 4 of 4): Tox | CDI (Silver 0.5 μM, biocide concentration 1 of 4): 0.90 | CDI (Silver 0.5 μM, biocide concentration 2 of 4): 1.06 | CDI (Silver 0.5 μM, biocide concentration 3 of 4): 0.73 | CDI [11]: Tox | CDI (Silver 1.0 μM, biocide concentration 1 of 4): 0.88 | CDI (Silver 1.0 μM, biocide concentration 2 of 4): 0.93 | CDI (Silver 1.0 μM, biocide concentration 3 of 4): 0.99 | CDI [12]: Tox | CDI (Silver 5.0 μM, biocide concentration 1 of 4): 0.88 | CDI (Silver 5.0 μM, biocide concentration 2 of 4): 0.92 | CDI [13]: Tox

CCCCCCCCCCCC[N+](C)(C)C.[Br-] [Dodecyltrimethyl NH4^+ Br^−]
CDI (coefficient of drug interaction), copper mixed with biocide (1st of 3 copper concentrations (value not shown), 1st of four biocide concentrations): 1.20 | CDI (coefficient of drug interaction), copper mixed with biocide (1st of 3 copper concentrations (value not shown), 3rd of four biocide concentrations): 1.51 | CDI (coefficient of drug interaction), copper mixed with biocide [1]: Tox | CDI (coefficient of drug interaction), copper mixed with biocide (2nd of 3 copper concentrations (value not shown), 1st of four biocide concentrations): 1.02 | CDI (coefficient of drug interaction), copper mixed with biocide (2nd of 3 copper concentrations (value not shown), 2nd of four biocide concentrations): 1.04 | CDI (coefficient of drug interaction), copper mixed with biocide (2nd of 3 copper concentrations (value not shown), 3rd of four biocide concentrations): Tox | CDI (coefficient of drug interaction), copper mixed with biocide [7]: Tox | CDI (coefficient of drug interaction), copper mixed with biocide (3rd of 3 copper concentrations (value not shown), 1st of four biocide concentrations): 0.77 | CDI (coefficient of drug interaction), copper mixed with biocide (3rd of 3 copper concentrations (value not shown), 2nd of four biocide concentrations): 0.73 | CDI (coefficient of drug interaction), copper mixed with biocide (3rd of 3 copper concentrations (value not shown), 3rd of four biocide concentrations): 1.63 | CDI (coefficient of drug interaction), copper mixed with biocide [2]: Tox | CDI (coefficient of drug interaction) (Gold section of Table 5, first of three gold concentrations (μM, value not given), biocide concentration 1 of 4): 0.96 | CDI (coefficient of drug interaction) (Gold section of Table 5, first of three gold concentrations (μM, value not given), biocide concentration 2 of 4): 1.00 | CDI (coefficient of drug interaction) (Gold section of Table 5, first of three gold concentrations (μM, value not given), biocide concentration 3 of 4): 0.95 | CDI (coefficient of drug interaction) (Gold section of Table 5, first of three gold concentrations (μM, value not given), biocide concentration 4 of 4): Tox | CDI (coefficient of drug interaction) (Gold section of Table 5, second of three gold concentrations (μM, value not given), biocide concentration 1 of 4): 0.96 | CDI (coefficient of drug interaction) (Gold section of Table 5, second of three gold concentrations (μM, value not given), biocide concentration 2 of 4): 0.94 | CDI (coefficient of drug interaction) (Gold section of Table 5, second of three gold concentrations (μM, value not given), biocide concentration 3 of 4): 1.11 | CDI (coefficient of drug interaction) (Gold section of Table 5, second of three gold concentrations (μM, value not given), biocide concentration 4 of 4): Tox | CDI (coefficient of drug interaction) (Gold section of Table 5, third of three gold concentrations (μM, value not given), biocide concentration 1 of 4): 1.02 | CDI (coefficient of drug interaction) (Gold section of Table 5, third of three gold concentrations (μM, value not given), biocide concentration 2 of 4): 1.14 | CDI (coefficient of drug interaction) (Gold section of Table 5, third of three gold concentrations (μM, value not given), biocide concentration 3 of 4): 1.05 | CDI (coefficient of drug interaction) (Gold section of Table 5, third of three gold concentrations (μM, value not given), biocide concentration 4 of 4): Tox | CDI (coefficient of drug interaction), silver + biocide (Silver 0.5 μM, 1st of four biocide concentrations, E. coli): 0.63 | CDI (coefficient of drug interaction), silver + biocide (Silver 0.5 μM, 2nd of four biocide concentrations, E. coli): 0.91 | CDI (coefficient of drug interaction), silver + biocide (Silver 0.5 μM, 3rd of four biocide concentrations, E. coli): Tox | CDI (coefficient of drug interaction), silver + biocide [3]: Tox | CDI (coefficient of drug interaction), silver + biocide (Silver 1.0 μM, 1st of four biocide concentrations, E. coli): 1.00 | CDI (coefficient of drug interaction), silver + biocide (Silver 1.0 μM, 2nd of four biocide concentrations, E. coli): 1.04 | CDI (coefficient of drug interaction), silver + biocide (Silver 1.0 μM, 3rd of four biocide concentrations, E. coli): Tox | CDI (coefficient of drug interaction), silver + biocide [4]: Tox | CDI (coefficient of drug interaction), silver + biocide (Silver 5.0 μM, 1st of four biocide concentrations, E. coli): 0.59 | CDI (coefficient of drug interaction), silver + biocide (Silver 5.0 μM, 2nd of four biocide concentrations, E. coli): 0.47 | CDI (coefficient of drug interaction), silver + biocide (Silver 5.0 μM, 3rd of four biocide concentrations, E. coli): Tox | CDI (coefficient of drug interaction), silver + biocide [5]: Tox
